Assays:
Type in all cases: in vivo
[1] = Safety of administered andrographolide (1000 mg per kilogram of body weight); details: 1000 mg of andrographolide per kilogram of body weight
Method: Andrographis paniculata containing andrographolide has conventionally been taken in orally and is considered to be infinitely safe. […] It should be noted, however, that there is a report saying that, when an infusion (0.5 g per mouse) or a water extract (1 g of crude drug per mouse) of Andrographis paniculata was injected into abdominal cavities of two mice, they died within 24 hours (Chuyakudaijiten, First Issue, Vol. 3). […] Accordingly, the andrographolide in the composition of the present invention is an active ingredient that is infinitely safe. Thus the amount of andrographolide to be contained is not particularly limited, as long as the amount is adequate to produce a desired effect and not to be toxic; the amount can be appropriately determined according to targets, pathological condition and the stage of illness, impact on taste (slightly bitter), and other factors.

[2] = system: Balb/c mice; experiment: Measurement of liver fatigue (serum GOT, GPT, liver TBARS) after water immersion and sleep disturbance; details: 8 mg per kilogram of body weight orally once daily during two days of water immersion
Method: The second test is measurement of liver fatigue. This is described in detail below in Example 2. […] In a liver of this model, GOT and GPT levels increased, compared with those of a normally-reared group. GOT (glutamic oxalacetic transaminase) and GPT (glutamic pyruvic transaminase), which are enzymes present in hepatic cells, are known to escape into blood when hepatic cells are damaged. Therefore, a level of damage on the liver is determined by measuring GOT and GPT in blood. […] It is inferred that the long-term general fatigue condition caused alteration in liver function, disruption of oxygen reduction system balance, and the like to result in accumulation of lipid peroxide. This is considered to support the fact that this model is an organ fatigue model.
That is to say, since this animal model is also an organ fatigue model, anti-fatigue action against organ fatigue would be confirmed if it is observed that administration of the test substance, for instance, returns a changed organ fatigue marker, such as GOT, GPT, and TBARS mentioned above, to a normal level and reduces change in the organ markers. Such anti-fatigue action is considered to regulate overall activity of internal organs to condition metabolism, thereby being involved in reduction of physical and mental fatigue stress, maintenance of energy, improvement in endurance, and the like.
Effect of andrographolide on fatigue from water immersion and sleep disturbance was examined using a partially modified method of Tanaka et al. (Neuroscience Let. 352, 159-162, 2003). […] Blood serum was separated from the blood, and GOT (glutamic oxalacetic transaminase) and GPT (glutamic pyruvic transaminase) in the blood serum were measured with a small-sized biochemistry automatic analyzer (Model 7070, Hitachi High-Technologies Corporation). Further, levels of lipid peroxide from liver were measured as a level of TBARS (thiobarbituric acid reactive substances). […] Then, the TBARS levels were measured in accordance with the method of Ohkawa et al. Anal. Biochem. 95. […]

[3] = system: fatigue animal models such as mice and rats; experiment: Fatigue animal models such as mice and rats (summary of effective intake)
Method: Accordingly, the amount of andrographolide to be contained in the composition of the present invention is 0.01-500 mg per kilogram of body weight, preferably 0.1-50 mg per kilogram of body weight, more preferably 0.1-10 mg per kilogram of body weight, especially preferably 0.25-10 mg per kilogram of body weight, per daily amount of the composition to be taken by animals including humans. Especially in the case in which andrographolide is to be orally administered to humans (adult) to obtain anti-fatigue action, it is generally suitable to administer 0.1-100 mg of andrographolide, preferably 0.1-50 mg, more preferably 0.1-10 mg, especially preferably 0.25-10 mg, per daily amount of andrographolide to be taken.

C=C1CC[C@@H]2[C@](C)(CO)[C@H](O)CC[C@@]2(C)[C@@H]1C/C=C1/C(=O)OC[C@H]1O [andrographolide]
abnormality after administration [1]: no abnormality was observed | GOT level in the blood serum ([2]; FIG. 2(A)): prevented from increasing | GPT level in the blood serum ([2]; FIG. 2(B)): prevented from increasing | liver TBARS level ([2]; FIG. 2(C)): prevented from increasing | intake producing desired anti-fatigue action ([3]; taken in advance or during fatigue stress to prevent or reduce mental, physical and organ fatigue): 0.25-200 mg per kilogram of body weight | intake producing desired anti-fatigue action ([3]; taken in to promote recovery from physical fatigue already developed): 0.5-8 mg per kilogram of body weight

From patent US8507547B2, “Anti-fatigue agents and oral compositions containing andrographolide as active ingredient” (Suntory Holdings Limited, priority 2007, dated 2013)
